According to ChEMBL document CHEMBL1155608, “Malyngamides O and P from the sea hare Stylocheilus longicauda” (J Nat Prod, 2000):

Tests used:
Format in all cases: functional, cell-based
[1] = tested on: P388; assay: Cytotoxicity against mouse P388 cells
[2] = tested on: A549; assay: Cytotoxicity against human A549 cells
[3] = tested on: HT-29; assay: Cytotoxicity against human HT29 cells

Measured: IC50

CCCCCCC[C@@H](C/C=C/CCC(=O)N(C)C/C(=C\Cl)C/C(=C\C(=O)OC)OC)OC [MALYNGAMIDE O]
2 µg/mL: [1] | [2] | [3]
